Data: patent publication US4791135A (priority 1987, dated 1988)

How the values were obtained:
[1] = test system: P. falciparum Sierra Leone (D-6) clone; assay: In vitro antimalarial susceptibility, 3H-hypoxanthine uptake, Sierra Leone (D-6) clone; format: cell-based, Plasmodium falciparum
Procedure: (§1) The former clone is a strain that is resistant to mefloquine and the latter, to chloroquine, pyrimethamine, sulfadoxine, and quinine.
(§2) In vitro assays were conducted using a modification of the semiautomated microdilution technique of Desjardins et al., Antimicrob. Agents Chemoether., 1979, Volume 16, page 710 and Milhous et al., Antimicrob. Agents Chemother., 1985, Volume 27, page 525. Two P. falciparum malaria parasite clones, designated as Indochina (W-2) and Sierra Leone (D-6), were utilized in susceptibility testing. They were derived by direct visualization and micromanipulation from patient isolates obtained by the Centers for Disease Control, Atlanta, GA in 1980 and 1982, respectively. The patients had acquired infections either in Vietnam or Sierra Leone. The Indochina clone is resistant to the antimalarials chloroquine, sulfadoxine, pyrimethamine, and quinine, whereas the Sierra Leone, is resistant to mefloquine but susceptible to chloroquine, quinine, sulfadoxine, and pyrimethamine. Test compounds were initially dissolved in DMSO and 70% ethanol and diluted in RPMI 1640 culture medium with 10% human plasma to 400 fold. Drugs were subsequently further diluted using the Cetus Pro/Pette (Perkin-Elmer Corp., Norwalk, CT) over a range of 1.56-100×10^-9 molar. Parasite inocula (at 0.5% parasitemia and a 1% hematocrit) were incubated for 24 hours and added to equimolar concentrations of each test compound prior to the addition of ^3 H-hypoxanthine. After a further incubation of 18 hours, particulate matter was harvested from each microtiter well using an automated cell harvester (Skatron, Inc., Sterling, VA). Uptake of ^3 H-hypoxanthine was measured using a scintillation spectrophotometer (Model LS3801, Beckman Instruments, Irvine, CA).

[2] = test system: P. falciparum Indochina (W-2) clone; assay: In vitro antimalarial susceptibility, 3H-hypoxanthine uptake, Indochina (W-2) clone; format: cell-based, Plasmodium falciparum; settings: Plasmodium falciparum
Procedure: as §1, §2

[3] = physchem; format: physicochemical
Procedure: To compare the relative stability of the new agents vs. artesunic acid, stability studies of compound 8d and compound 1 were conducted in 2.5% K2 CO3 /D2 O solution at room temperature and were monitored by PMR. [drawing 8]
To a 5 mm NMR tube containing 10 mg of sample was added 0.5 mL of 2.5% K2 CO3 /D2 O solution. The initial spectrum of the solution was taken within 5 minutes, and again at intervals thereafter. The extent of hydrolysis was estimated by the following equation:
% Decomposition=(B/2A+B)×100
where A=integration of H-10 (5.80 ppm, d, J=10.8 Hz, 1H) and H-12 (5.71 ppm, s, 1H) of artesunate; B=integration of the singlet at 2.42 ppm for the potassium succinate formed. With time, the intensity of potassium succinate (2.42 ppm) signal increases, while that of H-10 and H-12 of artesunate decreases. The stability study of compound 1 in 5% NaHCO3 /D2 O was also carried out by the same procedure.

[4] = test system: Plasmodium falciparum D-6 (Sierra Leone clone) and W-2 (Indochina clone); assay: In vitro antimalarial activity against both clones, summarised in words; format: cell-based; settings: in words; relative to artemisinin (3) or compounds 2 and 3
Procedure: as §1
as §2, with “CA). Concentration-response data were analyzed by nonlinear regression and the IC50 's (50% inhibitory concentrations) for each compound were calculated.” for “CA).”

[5] = Water solubility; format: physicochemical
[6] = Stability of the free acid (PMR spectrum on standing); format: physicochemical; settings: gradual changes in PMR spectrum on standing
Source text: Hydrolysis of the ester (compound 5a) with 2.5% KOH/MeOH gave the corresponding potassium salt which was purified by reverse phase chromatography. Conversion of the salt (compound 7a) to the free acid (compound 8a) was achieved by acidification with acetic acid. The free acid appears to be unstable, as evidenced by gradual changes seen in its PMR spectrum on standing. This may be due to the instability of the acetal or ketal functions of the molecule under acidic conditions. In contrast, compounds 7b through 7d were smoothly converted to their corresponding stable free acids (compounds 8b-d).

Row | In vitro antimalarial activity IC50, Sierra Leone (D-6) [1] | IC50 [2] | stability in solution [3] | water solubility [5] | stability of free acid [6] | Structure (SMILES) | in vitro antimalarial activity relative to parent compounds [4]
1 | 1.74 ng/mL | 0.92 ng/mL | stable in solution | water soluble |  | CC1CCC2C(C)C(OCc3ccc(C(=O)O)cc3)OC3OC4(C)CCC1C32OO4 (stereo not drawn) [Compound 7d, Potassium p-(10-Dihydroartemisininoxy)methylbenzoate] | comparable in vitro activity to artemisinin
2 |  |  |  |  | unstable | CC1CCC2C(C)C(OCC(=O)O)OC3OC4(C)CCC1C32OO4 (stereo not drawn) [Compound 8a, 2-(10-Dihydroartemisininoxy)acetic acid] | 
